The nature of test [1]: Cytotoxicity against human LX2 cells assessed as reduction in cell viability by MTT assay. The format is functional, cell-based. Particulars: LX-2. Background: Tetrazolium assays rely on reduction of a dye to a coloured formazan, in cell work by metabolically active cells.
The nature of test [2]: Potency index, ratio of STM IC50 to test compound IC50 for cytotoxicity against human LX2 cells. The format is functional, LX-2.
The nature of test [3]: Inhibition of laminin deposition in human LX2 cells. It counts as functional, cell-based. Particulars: lx-2.
The nature of test [4]: Potency index, ratio of STM IC50 to test compound IC50 for inhibition of hyaluronic acid deposition in human LX2 cells. The format is functional, LX-2.
A short description of test [5]: Inhibition of hyaluronic acid deposition in human LX2 cells. The format is functional, cell-based. Particulars: lx-2.
Test [6] in a line: Potency index, ratio of STM IC50 to test compound IC50 for inhibition of laminin deposition in human LX2 cells. It counts as functional, LX-2.
Test [7] is described as follows: Inhibition of collagen type 1 deposition in human LX2 cells. The format is functional, cell-based. Particulars: lx-2.
For another test, the system named is LX-2. Nature of the test: Cytotoxicity against human LX2 cells assessed as reduction in cell viability at 100 uM by MTT assay. The format is functional, cell-based.
Test [8] can be described thus: Cytotoxicity against human LX2 cells assessed as reduction in cell viability incubated for 48 hrs by MTT assay. The format is functional, cell-based. Particulars: LX-2, 48 h.
The test system of the next test is L1210. Nature of the test: Growth inhibition of mouse L1210 cells incubated for 24 to 48 hrs by trypan blue exclusion assay. The format is functional, cell-based.
The subject of the next test is KB. Nature of the test: Growth inhibition of human KB cells incubated for 72 hrs by methylene blue staining based assay. The format is functional, cell-based.
Test [9] can be described thus: Inhibition of laminin deposition in human LX2 cells incubated for 72 hrs by ELISA. Particulars: lx-2. It counts as functional, cell-based. In general terms: An ELISA detects its analyte on a solid surface through an enzyme-linked reagent.
In another test the test system is CCRF-CEM. The experiment in a line: Growth inhibition of human CCRF-CEM cells incubated for 24 to 48 hrs by trypan blue exclusion assay. The format is functional, cell-based.
A short description of test [10]: Inhibition of hyaluronic acid deposition in human LX2 cells incubated for 72 hrs by ELISA. It counts as functional, cell-based. Particulars: lx-2.
For another test, the system named is MCF7. Nature of the test: Growth inhibition of human MCF7 cells incubated for 72 hrs by methylene blue staining based assay. The format is functional, cell-based. The following applies: MCF7, 72 h.
A short description of test [11]: Inhibition of collagen type 1 deposition in human LX2 cells incubated for 72 hrs by ELISA. The format is functional, cell-based. Particulars: lx-2.
A further test deals with LS174T. Nature of the test: Growth inhibition of human LS174T cells incubated for 72 hrs by methylene blue staining based assay. It counts as functional, cell-based.

In brackets after ≈: the same amount, converted by molar mass. Activity calls are given as the source filed them. No cut-off for these calls is given here.

The IC50 is the concentration that inhibits the measured activity by half.

As for `C=C1C(=O)O[C@@H]2[C@H]3C(C)=CC[C@@H](OC(=O)C4CCCC4)[C@]3(C)CC[C@@H]12`, the half-inhibitory concentration (IC50) in test [1] turned out to be 11.9 µM.
With `C=C1C(=O)O[C@@H]2[C@H]3C(C)=CC[C@@H](OC(=O)/C=C/c4ccc(OC(C)=O)cc4)[C@]3(C)CC[C@@H]12`, in [1], the IC50 came out at 21.5 µM.
Turning to `C=C1C(=O)O[C@@H]2[C@H]3C(C)=CC[C@@H](OC(=O)CCCC(=O)O[C@@H]4CC=C(C)[C@@H]5[C@H]6OC(=O)C(=C)[C@@H]6CC[C@]54C)[C@]3(C)CC[C@@H]12`, the IC50 in test [1] amounted to 11.1 µM.
Still for that read-out and setting: then `C=C1C(=O)O[C@@H]2[C@H]3C(C)=CC[C@@H](OC(=O)/C=C/c4ccncc4)[C@]3(C)CC[C@@H]12`, with 16.1 µM; and `C=C1C(=O)O[C@@H]2[C@H]3C(C)=CC[C@@H](OC(=O)c4ccccc4)[C@]3(C)CC[C@@H]12`, with 16.9 µM; and `C=C1C(=O)O[C@@H]2[C@H]3C(C)=CC[C@@H](OC(=O)CCC(=O)Oc4ccc(-n5cc(C)ccc5=O)cc4)[C@]3(C)CC[C@@H]12`, with 55.9 µM.
Take `C=C1C(=O)O[C@@H]2[C@H]3C(C)=CC[C@@H](OC(=O)c4ccc(C(=O)O[C@@H]5CC=C(C)[C@@H]6[C@H]7OC(=O)C(=C)[C@@H]7CC[C@]65C)cc4)[C@]3(C)CC[C@@H]12`: the IC50 in [1] came out at 9 µM.
Still for that read-out and setting: next, `C=C1C(=O)O[C@@H]2[C@H]3C(C)=CC[C@@H](OC(=O)/C=C/c4ccccc4)[C@]3(C)CC[C@@H]12`: 17.6 µM.
The same measure, in the same setting: next, `C=C1C(=O)O[C@@H]2[C@H]3C(C)=CC[C@@H](OC(=O)/C=C/c4ccc(C(F)(F)F)cc4)[C@]3(C)CC[C@@H]12`: 16.3 µM.
For the compound `C=C1C(=O)O[C@@H]2[C@H]3C(C)=CC[C@@H](OC(=O)/C=C/c4c(F)c(F)c(F)c(F)c4F)[C@]3(C)CC[C@@H]12`, the figures for the “Ratio IC50” value in test [2], in [4] and in test [6] were 4, 8 and 6, respectively. In addition, the IC50 in test [3] turned out to be 3.3 µM; in [1], 4.6 µM; in [5], 7.6 µM; in test [7], 6.1 µM.
For the compound `C=C1C(=O)O[C@@H]2[C@H]3C(C)=CC[C@@H](OC(=O)/C=C/c4ccccc4C(F)(F)F)[C@]3(C)CC[C@@H]12`, the IC50 in [1] came to 16.5 µM.
Turning to `C=C1C(=O)O[C@@H]2[C@H]3C(C)=CC[C@@H](OC(=O)/C=C/c4ccc(F)cc4)[C@]3(C)CC[C@@H]12`, in test [1], the IC50 is 21 µM.
Same read-out and setting: then `C=C1C(=O)O[C@@H]2[C@H]3C(C)=CC[C@@H](OC(=O)c4ccc(-n5cc(C)ccc5=O)cc4)[C@]3(C)CC[C@@H]12`, with 55.9 µM; and `C=C1C(=O)O[C@@H]2[C@H]3C(C)=CC[C@@H](OC(=O)CCCCCCC)[C@]3(C)CC[C@@H]12`, with 32.4 µM.
In the case of `CC1=CC[C@@H](O)[C@]2(C)CC[C@@H]3[C@H](OC(=O)[C@H]3CN(C)C)[C@@H]12`, the result in the test on LX-2 was inactive.
Consider `C=C1C(=O)O[C@@H]2[C@H]3C(C)=CCC(=O)[C@]3(C)CC[C@@H]12`, for which the IC50 in [1] was determined as 44.4 µM.
For `C=C1C(=O)O[C@@H]2[C@H]3C(C)=CC[C@@H](OC(=O)CCC(=O)O[C@@H]4CC=C(C)[C@@H]5[C@H]6OC(=O)C(=C)[C@@H]6CC[C@]54C)[C@]3(C)CC[C@@H]12`, the “Ratio IC50” value is 5 in test [2], 3 in test [4] and 3 in [6]. The IC50 in test [3] was 6.6 µM; in test [1], 3.5 µM; in test [5] it was 17.9 µM; in [7], 16.2 µM.
On to `C=C1C(=O)O[C@@H]2[C@H]3C(C)=CC[C@@H](OC(=O)c4cccc(C(F)(F)F)c4)[C@]3(C)CC[C@@H]12`, for which the IC50 in [1] turned out to be 11.5 µM.
As for `C=C1C(=O)O[C@@H]2[C@H]3C(C)=CC[C@@H](O)[C@]3(C)CC[C@@H]12` [SANTAMARIN], the IC50 in [8] is 16.5 µM; in the test with L1210, 0.16 µg/mL (≈ 0.644 µM); in the test with KB, 0.16 µg/mL (≈ 0.644 µM); in test [9], 18.6 µM; in the test on CCRF-CEM, 0.16 µg/mL (≈ 0.644 µM); in [10] it was above 60 µM. Moreover, the IC50 in the test on MCF7 is 0.16 µg/mL (≈ 0.644 µM); in test [11] it was 7.3 µM; in the test with LS174T it was 0.16 µg/mL (≈ 0.644 µM).
For `C=C1C(=O)O[C@@H]2[C@H]3C(C)=CC[C@@H](OC(=O)c4cccs4)[C@]3(C)CC[C@@H]12`, the IC50 in test [1] worked out at 31.3 µM.
Turning to `C=C1C(=O)O[C@@H]2[C@H]3C(C)=CC[C@@H](OC(C)=O)[C@]3(C)CC[C@@H]12`, the IC50 in test [1] came out at 12.3 µM.
`COc1cc([C@H]2Oc3cc([C@H]4Oc5cc(O)cc(O)c5C(=O)[C@@H]4O)ccc3O[C@@H]2CO)ccc1O` [SILYBIN A]: the IC50 in test [3] came out at 83.7 µM; in test [1], 151 µM; in [5], 164 µM; in [7] it was 51.5 µM.
As for `C=C1[C@H](O)C[C@@H](O)[C@]2(C)CC[C@H]3C(=C)C(=O)O[C@@H]3[C@@H]12`, the IC50 in test [1] is 43.3 µM.
With `C=C1C(=O)O[C@@H]2[C@H]3C(C)=CC[C@@H](OC(=O)/C=C/c4cccc(C(F)(F)F)c4)[C@]3(C)CC[C@@H]12`, the “Ratio IC50” value in [2], in test [4] and in test [6] was 3 in each case. Also, the IC50 in test [3] was 7.3 µM; in test [1] it was 6.4 µM; in [5] it was 21.2 µM; in [7] it was 14.7 µM.
Consider `C=C1C(=O)O[C@@H]2[C@H]3C(C)=CC[C@@H](OC(=O)/C=C/c4ccc(C=O)cc4)[C@]3(C)CC[C@@H]12`, for which the IC50 in test [1] is 45.5 µM.
On the same count and under the same terms, next, `C=C1C(=O)O[C@@H]2[C@@H]3[C@@](C)(CC[C@@H]12)[C@H](O)C[C@H]1O[C@@]31C`: 47.4 µM; `C=C1C(=O)O[C@@H]2[C@H]3C(C)=CC[C@@H](OC(=O)c4cccnc4)[C@]3(C)CC[C@@H]12`: 27.6 µM; `C=C1C(=O)O[C@@H]2[C@H]3C(C)=CC[C@@H](OC(=O)CCC(=O)O)[C@]3(C)CC[C@@H]12`: 92 µM.

Values taken from ChEMBL document CHEMBL4814036, “Synthesis and anti-fibrotic effects of santamarin derivatives as cytotoxic agents against hepatic stellate cell line LX2” (Bioorg Med Chem Lett, 2021).
